Measured values from ChEMBL document CHEMBL1137593, “Identification and optimisation of a series of substituted 5-pyridin-2-yl-thiophene-2-hydroxamic acids as potent histone deacetylase (HDAC) inhibitors” (Bioorg Med Chem Lett, 2007).
One block for each molecule: values may come before it.

Legend:
Histone deacetylase 1 = Histone deacetylase 1 (Homo sapiens, UniProt Q13547); test: Inhibition of HDAC activity measured by HDAC Fluorescent Activity Assay (mean of two experiments); format: functional
Histone deacetylase 1, sequence (Q13547 whole entry): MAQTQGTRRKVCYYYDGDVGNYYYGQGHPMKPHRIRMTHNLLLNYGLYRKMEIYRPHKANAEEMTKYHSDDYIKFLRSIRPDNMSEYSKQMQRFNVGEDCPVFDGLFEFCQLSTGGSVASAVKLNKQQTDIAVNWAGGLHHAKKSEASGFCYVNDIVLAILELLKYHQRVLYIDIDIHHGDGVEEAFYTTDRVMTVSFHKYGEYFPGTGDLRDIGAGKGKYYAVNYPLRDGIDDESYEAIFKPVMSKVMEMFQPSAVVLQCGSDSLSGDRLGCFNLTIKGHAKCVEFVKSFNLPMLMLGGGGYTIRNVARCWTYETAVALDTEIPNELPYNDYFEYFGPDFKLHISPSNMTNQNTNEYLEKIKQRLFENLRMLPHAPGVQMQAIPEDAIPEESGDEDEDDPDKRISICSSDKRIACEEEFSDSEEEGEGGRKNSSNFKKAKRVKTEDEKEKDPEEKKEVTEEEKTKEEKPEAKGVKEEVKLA

MCF7 = test: Inhibition of MCF7 cell proliferation (mean of two experiments); format: functional, cell-based; conditions: Homo sapiens
HCT-116 = test: cells; format: functional, cell-based; conditions: Homo sapiens;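 also: inhibition of HCT116 cell growth as proliferation read-out, each value averaged over two experiments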
Description: Inhibition of HCT116 cell proliferation (mean of two experiments)

MDA-MB-231 = test: cells; format: functional, cell-based; conditions: Homo sapiens
Description: Inhibition of MDA-MB-231 cell proliferation (mean of two experiments)

[1] = AUC after i.p. dosing at 5 mg kg-1; format: ADME, organism-based; set-up: dose 5 mg kg-1, route intraperitoneal; conditions: mouse, plasma, ip
Cytochrome P450 3A4 = Cytochrome P450 3A4 (Homo sapiens, UniProt P08684); test: Inhibition of CYP450 3A4; format: ADME
Cytochrome P450 3A4, sequence (P08684 whole entry): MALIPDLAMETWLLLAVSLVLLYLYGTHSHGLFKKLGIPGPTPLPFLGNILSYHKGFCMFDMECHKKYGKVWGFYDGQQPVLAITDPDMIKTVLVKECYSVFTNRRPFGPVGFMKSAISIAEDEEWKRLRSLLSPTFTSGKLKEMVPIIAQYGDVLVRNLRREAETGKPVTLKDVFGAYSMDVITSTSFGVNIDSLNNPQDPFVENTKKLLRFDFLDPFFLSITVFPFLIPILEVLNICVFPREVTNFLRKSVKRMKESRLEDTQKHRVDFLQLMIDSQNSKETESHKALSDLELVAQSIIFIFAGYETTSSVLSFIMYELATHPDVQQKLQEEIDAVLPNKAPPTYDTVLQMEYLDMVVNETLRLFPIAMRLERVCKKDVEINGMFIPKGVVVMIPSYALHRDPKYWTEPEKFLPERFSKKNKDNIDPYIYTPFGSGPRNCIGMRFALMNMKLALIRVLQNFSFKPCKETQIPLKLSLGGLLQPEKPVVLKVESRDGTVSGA

CYP2C19 = CYP2C19 (Homo sapiens, UniProt P33261); test: Percent inhibition of CYP450 2C19 at 1 uM concentration; format: ADME
CYP2C19, sequence (P33261 whole entry): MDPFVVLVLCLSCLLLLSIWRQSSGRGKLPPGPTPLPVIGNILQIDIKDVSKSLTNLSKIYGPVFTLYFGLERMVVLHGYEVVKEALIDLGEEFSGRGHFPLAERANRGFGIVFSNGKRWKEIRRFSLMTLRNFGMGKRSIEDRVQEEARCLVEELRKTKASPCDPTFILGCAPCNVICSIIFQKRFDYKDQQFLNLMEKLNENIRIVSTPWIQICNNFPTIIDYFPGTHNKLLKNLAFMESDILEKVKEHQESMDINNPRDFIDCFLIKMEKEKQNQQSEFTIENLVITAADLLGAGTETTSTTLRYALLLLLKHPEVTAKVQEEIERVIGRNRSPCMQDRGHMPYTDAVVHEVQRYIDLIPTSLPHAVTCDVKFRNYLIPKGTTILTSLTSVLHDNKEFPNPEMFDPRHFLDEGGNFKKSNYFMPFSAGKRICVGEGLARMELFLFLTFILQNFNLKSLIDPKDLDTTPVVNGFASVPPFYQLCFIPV

[2] = (§1) AUC after oral dosing at 5 mg kg-1; format: ADME, organism-based, Plasma; set-up: dose 5 mg kg-1, route oral; conditions: mouse, plasma
[3] = Bioavailability after i.p. dosing at 5 mg kg-1; format: ADME, organism-based; conditions: mouse, in vivo, ip
[4] = Permeability (Papp) run from pH 6.5-7.4; format: ADME, cell-based; conditions: human, Caco-2, pH 6.5
CYP1A2 = molecular target: T1, CYP1A2 (Homo sapiens, UniProt P05177); test: Percent inhibition of CYP450 1A2 at 1 uM concentration; format: ADME
T1 sequence (P05177 whole entry): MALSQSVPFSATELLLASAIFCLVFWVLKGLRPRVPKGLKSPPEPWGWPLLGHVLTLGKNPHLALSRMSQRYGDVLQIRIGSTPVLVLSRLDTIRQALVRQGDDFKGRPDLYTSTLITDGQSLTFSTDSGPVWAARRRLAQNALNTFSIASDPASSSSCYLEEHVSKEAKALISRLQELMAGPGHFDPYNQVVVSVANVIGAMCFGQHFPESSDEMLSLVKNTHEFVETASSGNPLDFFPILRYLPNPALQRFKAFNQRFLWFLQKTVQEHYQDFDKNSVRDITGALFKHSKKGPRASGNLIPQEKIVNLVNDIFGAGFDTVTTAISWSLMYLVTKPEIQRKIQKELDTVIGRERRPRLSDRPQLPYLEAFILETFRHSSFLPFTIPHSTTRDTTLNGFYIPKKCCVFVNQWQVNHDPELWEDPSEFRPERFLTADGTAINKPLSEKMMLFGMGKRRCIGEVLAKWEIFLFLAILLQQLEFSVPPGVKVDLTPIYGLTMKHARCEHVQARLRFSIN

[5] = Hepatocyte stability; format: ADME, cell-based; conditions: hepatocytes
CYP2C9 = CYP2C9 (Homo sapiens, UniProt P11712); test: Percent inhibition of CYP450 2C9 at 1 uM concentration; format: ADME
CYP2C9, sequence (P11712 whole entry): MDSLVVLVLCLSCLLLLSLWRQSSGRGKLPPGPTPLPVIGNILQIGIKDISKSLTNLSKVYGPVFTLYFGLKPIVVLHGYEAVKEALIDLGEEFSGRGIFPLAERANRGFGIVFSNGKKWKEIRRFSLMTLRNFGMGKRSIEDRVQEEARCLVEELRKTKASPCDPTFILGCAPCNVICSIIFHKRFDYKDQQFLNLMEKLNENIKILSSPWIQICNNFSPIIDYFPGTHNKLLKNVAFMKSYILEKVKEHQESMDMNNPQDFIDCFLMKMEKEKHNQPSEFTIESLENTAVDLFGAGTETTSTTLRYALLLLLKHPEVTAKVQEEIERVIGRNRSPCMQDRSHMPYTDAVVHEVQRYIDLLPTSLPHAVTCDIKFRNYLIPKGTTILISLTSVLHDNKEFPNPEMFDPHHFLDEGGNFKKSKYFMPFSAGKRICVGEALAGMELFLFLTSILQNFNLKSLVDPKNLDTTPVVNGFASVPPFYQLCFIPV

[6] = Microsome stability: percent compound remaining; format: ADME; conditions: microsomes
[7] = (§2) Oral bioavailability after oral dosing at 5 mg kg-1; format: ADME, organism-based; conditions: in vivo
CYP2D6 = CYP2D6 (Homo sapiens, UniProt P10635); test: Percent inhibition of CYP450 2D6 at 1uM concentration; format: ADME
CYP2D6, sequence (P10635 whole entry): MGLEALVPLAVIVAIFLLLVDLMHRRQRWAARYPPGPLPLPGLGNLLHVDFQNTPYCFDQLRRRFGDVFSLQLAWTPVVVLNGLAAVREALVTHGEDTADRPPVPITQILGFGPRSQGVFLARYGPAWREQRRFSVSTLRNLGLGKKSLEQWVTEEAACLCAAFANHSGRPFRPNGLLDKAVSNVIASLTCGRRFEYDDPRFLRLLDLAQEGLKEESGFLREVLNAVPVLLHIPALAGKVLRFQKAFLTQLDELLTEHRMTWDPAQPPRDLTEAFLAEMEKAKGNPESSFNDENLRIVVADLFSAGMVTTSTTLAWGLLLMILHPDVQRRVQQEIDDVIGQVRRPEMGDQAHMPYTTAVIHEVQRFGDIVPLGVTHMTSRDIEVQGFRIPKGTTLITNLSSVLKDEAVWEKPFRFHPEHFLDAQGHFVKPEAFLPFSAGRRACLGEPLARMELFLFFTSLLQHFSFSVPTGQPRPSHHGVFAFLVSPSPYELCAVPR

[8] = Steady state volume of distribution (Vdss) after i.v. dosing at 1 mg kg-1; format: ADME, organism-based; set-up: dose 1 mg kg-1, route intravenous; conditions: in vivo, iv, read-out: Vdss
[9] = as §1; format: ADME, organism-based; set-up: dose 5 mg kg-1, route oral; conditions: rat, plasma
[10] = Half life after i.v. dosing at 1 mg kg-1; format: ADME, organism-based; set-up: dose 1 mg kg-1, route intravenous; conditions: in vivo, iv
[11] = (§3) Clearance after i.v. dosing at 1 mg kg-1; format: ADME, organism-based; set-up: dose 1 mg kg-1, route intravenous; conditions: in vivo, iv
Mus musculus [12] = test: as §1; format: ADME, organism-based, Plasma; set-up: dose 5 mg kg-1, route oral; conditions: in vivo
Mus musculus [13] = test: as §2; format: ADME, organism-based; conditions: in vivo
Mus musculus [14] = test: as §3; format: ADME, organism-based; set-up: dose 1 mg kg-1, route intravenous; conditions: in vivo, iv

IC50 (Histone deacetylase 1): 1130 nM
Compound: O=C(NO)c1ccc(-c2cccnc2)s1

IC50 (Histone deacetylase 1): 9 nM
IC50 (MCF7): 80 nM
IC50 (HCT-116): 100 nM
Compound: O=C(NO)c1ccc(-c2ccc(CNCCc3ccc(F)cc3)cn2)s1

IC50 (Histone deacetylase 1): 12 nM
IC50 (MCF7): 90 nM
IC50 (HCT-116): 100 nM
Compound: O=C(NO)c1ccc(-c2ccc(CNCCc3ccccc3F)cn2)s1

IC50 (Histone deacetylase 1): 8 nM
IC50 (MCF7): 50 nM
IC50 (HCT-116): 70 nM
Compound: O=C(NO)c1ccc(-c2ccc(CNCc3ccc4c(c3)OCO4)cn2)s1

IC50 (MDA-MB-231): 11000 nM
IC50 (Histone deacetylase 1): 243 nM
IC50 (MCF7): 2250 nM
Compound: O=C(NO)c1ccc(-c2ccccn2)s1

AUC [1]: 1250 ng·h/mL
IC50 (MDA-MB-231): 220 nM
IC50 (Cytochrome P450 3A4): 26000 nM
inhibition at 1 µM (CYP2C19): -4%
IC50 (Histone deacetylase 1): 16 nM
AUC [2]: 360 ng·h/mL
bioavailability [3]: 100%
Papp [4]: 15.4 ×10⁻⁶ cm/s
inhibition at 1 µM (CYP1A2): 17%
Hepatocyte stability ([5]; human): 7 uL/min/10e6 cells
Hepatocyte stability ([5]; rat): 27 uL/min/10e6 cells
inhibition at 1 µM (CYP2C9): -14%
Percent remaining ([6]; human): 88%
Percent remaining ([6]; mouse): 35%
bioavailability ([7]; mouse): 36%
bioavailability ([7]; rat): 50%
IC50 (MCF7): 80 nM
inhibition at 1 µM (CYP2D6): 1%
IC50 (HCT-116): 110 nM
Vd ([8]; mouse): 1.1 L/kg
Vd ([8]; rat): 2.9 L/kg
AUC [9]: 3300 ng·h/mL
half-life ([10]; mouse): 0.17 h
half-life ([10]; rat): 2.7 h
clearance ([11]; mouse): 83 mL/min/kg
clearance ([11]; rat): 13 mL/min/kg
Compound: O=C(NO)c1ccc(-c2ccc(CNCc3ccccc3)cn2)s1

IC50 (Histone deacetylase 1): 14 nM
IC50 (MCF7): 60 nM
IC50 (HCT-116): 60 nM
Compound: Cc1ccc(CCNCc2ccc(-c3ccc(C(=O)NO)s3)nc2)cc1

IC50 (MDA-MB-231): 370 nM
IC50 (Histone deacetylase 1): 35 nM
IC50 (MCF7): 150 nM
Compound: CN(Cc1ccccc1)Cc1ccc(-c2ccc(C(=O)NO)s2)nc1

IC50 (MDA-MB-231): 210 nM
IC50 (Histone deacetylase 1): 9 nM
IC50 (MCF7): 80 nM
Compound: O=C(NO)c1ccc(-c2ccc(CCNCc3ccccc3)cn2)s1

IC50 (Histone deacetylase 1): 4 nM
IC50 (MCF7): 60 nM
IC50 (HCT-116): 120 nM
Compound: O=C(NO)c1ccc(-c2ccc(CNCCc3cccc4occc34)cn2)s1

IC50 (MDA-MB-231): 250 nM
IC50 (Histone deacetylase 1): 18 nM
IC50 (MCF7): 120 nM
Compound: O=C(NO)c1ccc(-c2ccc(CNCCCc3ccccc3)cn2)s1

IC50 (MDA-MB-231): 200 nM
IC50 (Histone deacetylase 1): 12 nM
IC50 (MCF7): 70 nM
Compound: O=C(NO)c1ccc(-c2ccc(CNCCc3ccccc3)cn2)s1

IC50 (Histone deacetylase 1): 900 nM
IC50 (MCF7): 31000 nM
Compound: O=C(NO)c1ccc(-c2ccccc2)s1

IC50 (Histone deacetylase 1): 9 nM
IC50 (MCF7): 70 nM
IC50 (HCT-116): 110 nM
Compound: O=C(NO)c1ccc(-c2ccc(CCNCc3ccc4c(c3)OCO4)cn2)s1

AUC [1]: 7200 ng·h/mL
IC50 (Cytochrome P450 3A4): 53000 nM
inhibition at 1 µM (CYP2C19): 71%
AUC (Mus musculus [12]): 900 ng·h/mL
bioavailability [3]: 85%
Papp [4]: 4.2 ×10⁻⁶ cm/s
inhibition at 1 µM (CYP1A2): 9%
Hepatocyte stability ([5]; human): 15 uL/min/10e6 cells
Hepatocyte stability ([5]; rat): 26 uL/min/10e6 cells
inhibition at 1 µM (CYP2C9): 0%
Percent remaining ([6]; human): 55%
Percent remaining ([6]; mouse): 5%
F (Mus musculus [13]): 1%
bioavailability ([7]; rat): 2%
inhibition at 1 µM (CYP2D6): 8%
Vd ([8]; mouse): 0.4 L/kg
Vd ([8]; rat): 0.9 L/kg
AUC [9]: 100 ng·h/mL
half-life ([10]; mouse): 2.5 h
half-life ([10]; rat): 1.6 h
CL (Mus musculus [14]): 10 mL/min/kg
clearance ([11]; rat): 21 mL/min/kg
Compound: O=C(NO)c1ccc(-c2ccn(CCNCc3ccc4c(c3)OCO4)n2)s1

IC50 (Histone deacetylase 1): 2500 nM
IC50 (MCF7): > 100000 nM
Compound: O=C(NO)c1ccc(-c2cccs2)s1

IC50 (Histone deacetylase 1): 1260 nM
Compound: O=C(NO)c1ccc(-c2ccncc2)s1

IC50 (Histone deacetylase 1): 186 nM
IC50 (MCF7): 2120 nM
Compound: O=C(NO)c1ccc(-c2ncccn2)s1

IC50 (Histone deacetylase 1): 581 nM
IC50 (MCF7): 3840 nM
Compound: O=C(NO)c1ccc(-c2cccc(CNCCc3ccccc3)n2)s1

IC50 (MDA-MB-231): 300 nM
IC50 (Histone deacetylase 1): 9 nM
IC50 (MCF7): 130 nM
Compound: O=C(NO)c1ccc(-c2ccc(CNCc3ccc(Cl)cc3)cn2)s1

IC50 (Histone deacetylase 1): 11 nM
IC50 (MCF7): 50 nM
IC50 (HCT-116): 90 nM
Compound: O=C(NO)c1ccc(-c2ccc(CNCc3ccc4c(c3)OCCO4)cn2)s1

IC50 (Histone deacetylase 1): 7 nM
IC50 (MCF7): 150 nM
IC50 (HCT-116): 180 nM
Compound: O=C(NO)c1ccc(-c2ccc(CNCc3ccc(-c4ccccc4)cc3)cn2)s1

IC50 (MDA-MB-231): 630 nM
IC50 (Histone deacetylase 1): 16 nM
IC50 (MCF7): 370 nM
Compound: O=C(NO)c1ccc(-c2ccc(CNc3ccccc3)cn2)s1

IC50 (Histone deacetylase 1): 31 nM
IC50 (MCF7): 140 nM
Compound: O=C(NO)c1ccc(-c2ccc(CCNCCc3ccccc3)cn2)s1

IC50 (Histone deacetylase 1): 13 nM
IC50 (MCF7): 90 nM
IC50 (HCT-116): 140 nM
Compound: O=C(NO)c1ccc(-c2ccc(CCNCc3ccc(F)cc3)cn2)s1

IC50 (Histone deacetylase 1): 359 nM
IC50 (MCF7): 1900 nM
Compound: O=C(NO)c1ccc(-c2cccc(CNCc3ccccc3)n2)s1

IC50 (Histone deacetylase 1): 8 nM
IC50 (MCF7): 120 nM
IC50 (HCT-116): 180 nM
Compound: O=C(NO)c1ccc(-c2ccc(CNCCc3c[nH]c4ccccc34)cn2)s1

IC50 (Histone deacetylase 1): 17 nM
IC50 (MCF7): 60 nM
IC50 (HCT-116): 80 nM
Compound: COc1ccccc1CCNCc1ccc(-c2ccc(C(=O)NO)s2)nc1

IC50 (MDA-MB-231): 170 nM
IC50 (Histone deacetylase 1): 7 nM
IC50 (MCF7): 110 nM
Compound: O=C(NO)c1ccc(-c2ccc(CNCc3ccccc3Cl)cn2)s1

IC50 (MDA-MB-231): 860 nM
IC50 (Histone deacetylase 1): 30 nM
IC50 (MCF7): 220 nM
Compound: O=C(NO)c1ccc(-c2ccc(CN3CCc4ccccc4C3)cn2)s1

IC50 (MDA-MB-231): 300 nM
IC50 (Histone deacetylase 1): 11 nM
IC50 (MCF7): 110 nM
Compound: O=C(NO)c1ccc(-c2ccc(CNCCOc3ccccc3)cn2)s1

IC50 (Histone deacetylase 1): 6 nM
IC50 (MCF7): 80 nM
IC50 (HCT-116): 80 nM
Compound: O=C(NO)c1ccc(-c2ccc(CNCCc3ccccc3Cl)cn2)s1

IC50 (MDA-MB-231): 3510 nM
IC50 (Histone deacetylase 1): 80 nM
IC50 (MCF7): 1470 nM
Compound: O=C(NO)c1ccc(-c2ccc(NCCc3ccccc3)cn2)s1

IC50 (Histone deacetylase 1): 9 nM
IC50 (MCF7): 60 nM
IC50 (HCT-116): 90 nM
Compound: Cc1cccc(CCNCc2ccc(-c3ccc(C(=O)NO)s3)nc2)c1

IC50 (Histone deacetylase 1): 8 nM
IC50 (MCF7): 90 nM
IC50 (HCT-116): 70 nM
Compound: Cc1ccccc1CCNCc1ccc(-c2ccc(C(=O)NO)s2)nc1

AUC [1]: 600 ng·h/mL
inhibition at 1 µM (CYP2C19): 14%
AUC [2]: 200 ng·h/mL
bioavailability [3]: 61%
Papp [4]: 8 ×10⁻⁶ cm/s
inhibition at 1 µM (CYP1A2): 14%
Hepatocyte stability ([5]; human): 3 uL/min/10e6 cells
Hepatocyte stability ([5]; rat): 12 uL/min/10e6 cells
inhibition at 1 µM (CYP2C9): 28%
%R ([6]; human): 97%
%R ([6]; mouse): 114%
bioavailability ([7]; mouse): 14%
bioavailability ([7]; rat): 16%
inhibition at 1 µM (CYP2D6): 8%
Vd ([8]; mouse): 2.1 L/kg
Vd ([8]; rat): 1.6 L/kg
AUC [9]: 400 ng·h/mL
half-life ([10]; mouse): 0.8 h
half-life ([10]; rat): 0.7 h
clearance ([11]; mouse): 78 mL/min/kg
clearance ([11]; rat): 67 mL/min/kg
Compound: O=C(CCCCCCC(=O)Nc1ccccc1)NO [VORINOSTAT]
